Measurements: patent US10876058B2, “Method for prevention of biodeterioration of fuels” (priority 2013, dated 2020)
Residues, ends and D or L forms follow the SMILES beside them. No end group written: not given here. *: point of attachment. βNA = c1ccc2cc(N*)ccc2c1

How the values were obtained:
[1] = test system: environmental bacteria (E. coli, Bacillus, and Pseudomonas); experiment: Antimicrobial peptide growth inhibition in 1:1 fuel-growth media mixtures; format: cell-based; settings: for bacteria growth after addition to fuel: added to fuel (aqueous and fuel phase)
Experimental: (§1) Protegrin-1 and Magainin-2 antimicrobial peptides were added individually to the fuel phase and the aqueous (minimal media M9, Bushnell-Haas, or water) phase of 1:1 fuel-growth media mixtures containing environmental bacteria (E. coli, Bacillus, and Pseudomonas) at concentrations ranging from 1 to 1×10^9 cells/mL. Magainin 1 and 2 were obtained from Sigma-Aldrich (St. Louis, Mo.). Protegrin-1 was obtained from AnaSpec (Fremont, Calif.) or produced from a transgenic construct containing a fusion between green fluorescent protein (“GFP”) and the Protegrin-1 coding gene. The GFP-Protegrin fusion was purified by affinity chromatography and Protegrin cleaved from the fusion for use, as pure, or as a fusion in the bioassays.
(§2) The antimicrobial peptides were added at the following concentrations: 0 μg/mL, 1 μg/mL, 2.5 μg/mL, 5 μg/mL, 10 μg/mL, 20 μg/mL, 50 μg/mL, 75 μg/mL, 100 μg/mL, and 125 μg/mL in the presence and absence of fuel. Experiments using minimal media with bacteria in the presence of fuel were designed to measure the effect of fuel in combination with the antimicrobial peptide control. Control experiments contained glycerol instead of fuel as the energy source.
(§3) The antimicrobial effect of the peptides was measured every 24 hours for four days after inoculation by measuring growth through absorbance readings (OD600), DNA quantitation through qPCR, and colony counting techniques.

[2] = test system: E. coli; experiment: Antimicrobial peptide growth inhibition, E. coli (FIG. 6); format: cell-based; settings: absence of fuel
Experimental: as §1, §2, §3

[3] = test system: Pseudomonas; experiment: Antimicrobial peptide growth inhibition, Pseudomonas (FIG. 7); format: cell-based; settings: absence of fuel
Experimental: as §1, §2, §3

[4] = Partition from fuel into the aqueous phase; format: physicochemical; settings: added to fuel (aqueous and fuel phase)
[5] = test system: environmental bacteria (Pseudomonas, Acinetobacter, Marinobacter, and Dietzia); experiment: Efflux pump blocker growth inhibition in 1:1 fuel-minimal media mixtures; format: cell-based; settings: for bacterial growth inhibition: fuel present (FIGS. 8 and 10)
Experimental: (§4) C-capped dipeptide efflux pump blocker, Phe-Arg β-naphthylamide dihydrochloride (MC-207,110) (Sigma Aldrich) was added to the fuel phase and the aqueous (minimal media M9, Bushnell-Haas, or water) phase of 1:1 fuel-minimal media mixtures containing environmental bacteria (Pseudomonas, Acinetobacter, Marinobacter, and Dietzia) at concentrations ranging from 1 to 1×10^9 cells/mL. Phe-Arg β-naphthylamide dihydrochloride was added to the fuel at concentrations of 0 μg/mL, 20 μg/mL, 40 μg/mL, 60 μg/mL, 80 μg/mL, and 100 μg/mL. Control experiments were performed by adding 0 μg/mL to 120 μg/mL of Phe-Arg β-naphthylamide to minimal media containing bacteria and glycerol as the energy source, but not fuel.
(§5) The antimicrobial effect of the efflux pump blocker was established daily by measuring growth through absorbance readings (OD600), DNA quantitation through qPCR, and colony counting techniques.

[6] = test system: Pseudomonas aeruginosa; experiment: Efflux pump blocker growth inhibition, Pseudomonas aeruginosa (FIG. 10); format: cell-based; settings: fuel present (FIG. 10)
Experimental: as §4, §5

[7] = test system: Acinetobacter venetianus; experiment: Efflux pump blocker growth inhibition, Acinetobacter venetianus (FIG. 10); format: cell-based; settings: fuel present (FIG. 10)
Experimental: as §4, §5

[8] = test system: microbial growth in the aqueous phase; experiment: Treatment solution administered to jet fuel, microbial growth in the aqueous phase (FIG. 12); format: cell-based; settings: 80 μg/mL final in jet fuel; stock 25 mg/mL in absolute ethanol, DiEGME or water; initial and days one to three (FIG. 12)
Experimental: Treatment solutions were prepared, as described above, with 25 mg/mL efflux pump inhibitor in various solvents, including absolute ethanol, DiEGME, and water. The treatment solutions were administrated to jet fuel at a final concentration in fuel of 0 μg/mL, 40 μg/mL, and 80 μg/mL. FIG. 12 illustrates results of the 80 μg/mL treatment on initial measured microbial growth in the aqueous phase as well as microbial growth after one, two, and three days.

[9] = Stability in the presence of fuel; format: physicochemical; settings: activity was preserved
From the text: Additional experimental results (see FIG. 10) confirm that the growth inhibition effect and the inactivity of efflux pump were effective for other bacteria, including Pseudomonas aeruginosa and Acinetobacter venetianus. The c-capped dipeptides were stable in the presence of fuel and activity was preserved.

Protegrin-1 (RGGRLCYCRRRFCVCVGR; ends and bridges not checked; cysteine pairing not given here; UniProt P32194 131-148, looked up) [18 amino acid cysteine-rich β-sheet antimicrobial peptide; from AnaSpec or cleaved from a GFP-Protegrin fusion]
bacteria growth after addition to fuel [1]: inhibited bacteria growth
concentration that prevented microbial growth ([1]; peptide added directly to the fuel phase): less than or equal to 1 μg/mL
concentration required to completely inhibit growth [2]: 5 µg/mL
concentration required to completely inhibit growth [3]: 5 µg/mL
partition between fuel and aqueous phase [4]: partitioned into the aqueous phase

Cl.Cl.N=C(N)NCCC[C@H](NC(=O)[C@@H](N)Cc1ccccc1)C(=O)Nc1ccc2ccccc2c1 [c-capped dipeptide, Phe-Arg β-naphthylamide dihydrochloride] (H-Phe-Arg-βNA)
bacterial growth inhibition ([5]; 20 μg/mL): Partial bacterial growth inhibition
bacterial growth inhibition ([5]; 40 μg/mL): complete growth inhibition
bacterial growth inhibition ([5]; 60 μg/mL): complete growth inhibition
bacterial growth inhibition ([5]; 80 μg/mL): complete growth inhibition
bacterial growth inhibition ([5]; 100 μg/mL): complete growth inhibition
inhibitory effect on bacterial growth ([5]; fuel not present (glycerol control), concentrations as high as 100 μg/mL (FIG. 9)): not observed
concentration giving complete growth inhibition for up to 17 days ([5]; fuel present, up to 17 days (FIG. 11)): greater than 80 μg/mL
microbial growth and proliferation under periodic administration ([5]; low concentration (less than 20 μg/mL) every 3 to 4 days): prevented microbial growth and proliferation
growth inhibition effect and inactivity of efflux pump [6]: effective
growth inhibition effect and inactivity of efflux pump [7]: effective
microbial growth in the aqueous phase [8]: significantly decreased microbial growth
stability in the presence of fuel [9]: stable

Magainin-2
concentration required to completely inhibit bacteria growth ([1]; absence of fuel (FIG. 4)): 125 µg/mL
bacteria growth after addition to fuel [1]: inhibited bacteria growth
partition between fuel and aqueous phase [4]: partitioned into the aqueous phase
